Laboratory results as given in patent US10265278B2, “Pharmaceutical compositions and methods utilizing a D-amino acid” (priority 2008, dated 2019).
Read-outs that look alike come from different tables or passages of the source.

Experiments:
rat kidney [1] = conditions: cited from earlier work; for Protective effect against D-serine nephrotoxicity: compound injected prior to D-serine (Kaltenbach et al 1982); for Effect on nephrotoxic effects of orally administered DL-serine: DL-serine 100 mg oral, test compound subcutaneous or intramuscular, rats (Wachstein)
rat kidney [2] = conditions: rats (Dickey et al 2007), cited from earlier work
[3] = oral NAC vs. hydration alone; cited from earlier work
Sprague Dawley rats [4] = assay: Creatanine levels in rats during oral D-serine treatment with or without glutathione precursors; format: in vivo
Experimental: (§1) Rats were divided into 5 separate groups of four male and four female animals each.
(§2) In addition, a control group received only standard diet. […] Effects of various doses were investigated in a sequential manner starting with 50 mg/kg. Dose level was doubled every three days up to four doses (50 mg, 100 mg, 200 mg & 400 mg).
(§3) Nephrotoxicity was assessed in two ways: first, by creatanine levels and second by histophathology at necropsy.

Sprague Dawley rats [5] = assay: Histopathological examination of kidney at necropsy (tubular nephrosis grade); format: in vivo; conditions: histopathology at necropsy; oral gavage up to 400 mg/kg
Experimental: as §1, §2, §3

rat kidney [6] = conditions: cited from earlier work

**Q.** For `CC(N)(CO)C(=O)O` (racemic) [DL-alpha-methylserine], which “Protective effect against D-serine nephrotoxicity” value (from here on “Protective effect”) (rat kidney [1]) is on record?
**A.** Its value is “significant protective effects”.

**Q.** For `CC(C)C(N)C(=O)O` (racemic) [DL-valine], which “Effect on nephrotoxic effects of orally administered DL-serine” value (shortened to “Effect on nephrotoxic effects”) (rat kidney [1]) is on record?
**A.** Its value is “relatively ineffective”.

**Q.** For `O=C([O-])CS.[Na+]` [sodium thioglycollate], which “Effect on nephrotoxic effects” value (rat kidney [1]) is on record?
**A.** Its value is “relatively ineffective”.

**Q.** What does the source list for `CC(=O)N[C@@H](CS)C(=O)O` [NAC, N-acetylcysteine]?
**A.** Effect against cisplatin-induced experimental nephrotoxicity (rat kidney [2]; intravenous NAC): effective; Effect against cisplatin-induced experimental nephrotoxicity (rat kidney [2]; oral NAC): not found beneficial effects; Blockade of nephrotoxicity due to intravenous contrast [3]: not found benefit over hydration alone

**Q.** With `CC(C)(N)C(=O)O` [alpha-aminoisobutryic acid] as the molecule, how does the “Protective effect” value (rat kidney [1]) read?
**A.** Its value is “significant protective effects”.

**Q.** Which “Prevention of D-serine toxicity” value (rat kidney [1]; intraperitoneal, large doses (Williams and Lock 2005)) does the source give for `O=C([O-])c1ccccc1.[Na+]` [sodium benzoate] here?
**A.** Its value is “toxicity can be prevented”.

**Q.** With `N[C@H](CCO)C(=O)O` [D-homoserine] as the molecule, how does the “Protective effect” value (rat kidney [1]) read?
**A.** The value was “significant protective effects”.

**Q.** With `CC(C)C(O)C(N)C(=O)O` (racemic) [beta-hydroxy-DL-leucine] as the molecule, how does the “Protective effect” value (rat kidney [1]) read?
**A.** The value was “significant protective effects”.

**Q.** Which results are given for `N[C@H](CO)C(=O)O` [Group A, D-serine]?
**A.** Increase in creatanine levels during treatment (Sprague Dawley rats [4]; post vs. pre, in words): significant increase; Creatanine level, Change mean (Sprague Dawley rats [4]; post- minus pre-treatment): 0.12; Creatanine level, Post-treatment mean (Sprague Dawley rats [4]; post-treatment, oral gavage, doses escalated 50, 100, 200, 400 mg/kg): 0.77; Creatanine level, Pre-treatment Mean (Sprague Dawley rats [4]; pre-treatment (baseline), rats, oral gavage): 0.65; Nephrosis level (mean severity grade of tubular nephrosis) (Sprague Dawley rats [5]): 1.91; Nephrotoxicity in rats lacking DAAO (rat kidney [6]; rats lacking DAAO (Maekawa et al 2005)): not nephrotoxic; Smallest dose consistently producing renal lesions (rat kidney [6]; rats): 5 mg per 100 g

**Q.** With `C[C@@H](N)C(=O)O` [D-alanine] as the molecule, how does the “Protective effect” value (rat kidney [1]) read?
**A.** Its value is “significant protective effects”.

**Q.** Which “Effect on nephrotoxic effects” value (rat kidney [1]) does the source give for `OCC(S)CS` (stereo not shown) [2,3 dithiopropanol] here?
**A.** Its value is “relatively ineffective”.

**Q.** Which “Effect on nephrotoxic effects” value (rat kidney [1]) does the source give for `CC(O)C(=O)[O-].[Na+]` (stereo not shown) [sodium lactate] here?
**A.** Its value is “partial or full prevention of toxicity”.

**Q.** Which “Effect on nephrotoxic effects” value (rat kidney [1]) does the source give for `NCC(=O)O` [glycine] here?
**A.** Its value is “partial or full prevention of toxicity”.

**Q.** For `N[C@@H](Cc1c[nH]cn1)C(=O)O` [L-histidine], which “Effect on nephrotoxic effects” value (rat kidney [1]) is on record?
**A.** The value was “relatively ineffective”.

**Q.** With `[Cl-].[Na+]` [sodium chloride] as the molecule, how does the “Effect on nephrotoxic effects” value (rat kidney [1]) read?
**A.** Its value is “relatively ineffective”.

**Q.** Which “Protective effect” value (rat kidney [1]) does the source give for `C[C@H](O)[C@@H](N)C(=O)O` [D-threonine] here?
**A.** The value was “significant protective effects”.

**Q.** What does the source list for `N[C@@H](CCC(=O)N[C@@H](CS)C(=O)NCC(=O)O)C(=O)O` [glutathione]?
**A.** Effect on nephrotoxic effects of orally administered DL-serine (rat kidney [1]): blocked; Prevention of D-serine toxicity (rat kidney [1]; intrarenal injection, equimolar with D-serine (Krug et al 2007)): toxicity can be prevented

**Q.** For `NC(CO)C(=O)O` (racemic) [DL-serine], which Renal injury induced (rat kidney [6]; 100 mg DL-serine, rats, stock diet or diet deficient in B vitamins) is on record?
**A.** Its Renal injury induced is “acute renal necrosis”.

**Q.** Which “Effect on nephrotoxic effects” value (rat kidney [1]) does the source give for `CCCC(=O)O` [butyric acid] here?
**A.** Its value is “relatively ineffective”.

**Q.** Which “Effect on nephrotoxic effects” value (rat kidney [1]) does the source give for `C[C@@H](O)[C@H](N)C(=O)O` (racemic) [DL-threonine] here?
**A.** Its value is “partial or full prevention of toxicity”.

**Q.** For `CC(=O)[O-].[Na+]` [sodium acetate], which “Effect on nephrotoxic effects” value (rat kidney [1]) is on record?
**A.** The value was “relatively ineffective”.

**Q.** Which “Effect on nephrotoxic effects” value (rat kidney [1]) does the source give for `N=C(N)NCCC[C@H](N)C(=O)O` [L-arginine] here?
**A.** The value was “relatively ineffective”.

**Q.** For `CSCCC(N)C(=O)O` (racemic) [DL-methionine], which “Effect on nephrotoxic effects” value (rat kidney [1]) is on record?
**A.** The value was “blocked”.

**Q.** For `CC(N)C(=O)O` (racemic) [DL-alpha-alanine], which “Effect on nephrotoxic effects” value (rat kidney [1]) is on record?
**A.** Its value is “relatively ineffective”.

**Q.** With `O=C[C@H](O)[C@@H](O)[C@H](O)[C@H](O)CO` [D-glucose] as the molecule, how does the “Effect on nephrotoxic effects” value (rat kidney [1]) read?
**A.** Its value is “relatively ineffective”.
